# Results published in patent EP0585371B1, “AROMATIC OLIGOMERIC COMPOUNDS USEFUL AS MIMICS OF BIOACTIVE MACROMOLECULES” (RHONE-POULENC RORER INTERNATIONAL (HOLDINGS) INC., priority 1991, dated 1992).
# Key:
# [1] = tested on: normal pooled plasma; test: Anticoagulation activity, Activated Partial Thromboplastin Time (APTT) test; conditions: concentration required to double clotting time
# Method in brief: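 Normal pooled plasma was mixed with compound in 50 mM Tris-HCl, pH 7.5, and held at 37 °C for 2.5 min. Actin-activated cephaloplastin was added for 5 min, then 35 mM CaCl, and clotting time was read photometrically. Over about .025–1 mg/ml, the concentration doubling clotting time was found by linear interpolation.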
# [2] = molecular target: T1, ESb mouse lymphoma heparanase (Mus musculus, UniProt Q6YGZ1); test: Inhibition of heparanase activity (degradation of labeled ECM heparan sulfate); type: biochemical; conditions: 24 hours incubation with labeled ECM
# T1 construct: endogenous in cells; host or cells: ESb mouse lymphoma cells
# T1 sequence (Q6YGZ1 28-535): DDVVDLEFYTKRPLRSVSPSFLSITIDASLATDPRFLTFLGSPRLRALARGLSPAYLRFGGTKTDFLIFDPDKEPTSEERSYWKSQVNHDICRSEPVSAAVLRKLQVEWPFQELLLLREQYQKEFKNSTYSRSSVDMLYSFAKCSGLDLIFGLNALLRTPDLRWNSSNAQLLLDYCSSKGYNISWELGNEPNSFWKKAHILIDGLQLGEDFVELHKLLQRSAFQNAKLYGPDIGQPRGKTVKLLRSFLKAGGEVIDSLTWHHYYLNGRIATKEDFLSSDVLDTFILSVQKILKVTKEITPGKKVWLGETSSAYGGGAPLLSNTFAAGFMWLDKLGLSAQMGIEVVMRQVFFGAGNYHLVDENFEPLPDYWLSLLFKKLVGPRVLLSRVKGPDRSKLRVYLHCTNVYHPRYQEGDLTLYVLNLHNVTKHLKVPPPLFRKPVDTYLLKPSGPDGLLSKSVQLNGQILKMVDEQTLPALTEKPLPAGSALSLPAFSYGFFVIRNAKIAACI
# Experimental: Heparanase is an endoglucuronidase capable of degrading […] (HS) at specific intrachain sites.
# The ability of compounds of the present invention to inhibit lymphomacell derived heparanase is tested in the assay system described by Vlodavsky et al., Cancer Research 43, 2704-2711 (1983). […] labeled ECM is incubated for 24 hours with ESb mouse lymphoma heparanase in the presence of various concentrations of the oligomers tested. Degradation of the HS is followed by gel filtration of the supematants. Heparanase activity is expressed as the total amount of labeled low-molecular-weight fragments released from the EMC substrate.
# [3] = tested on: human fixed thrombin activated platelets; test: Platelet aggregation inhibition (fibrinogen-induced); type: cell-based; conditions: human fibrinogen added
# Experimental: The method for measuring platelet aggregation inhibition is essentially that of Ruggeri, et al., Proc. Natl. Acad. Sci. USA, 83, 5708-5712 (1986), using formalin-fixed platelets as prepared by Plow, et al., Proc. Natl. Acad. Sci. USA, 79, 3711-3715 (1982). A given amount of the compound of the present invention or other compound to be tested (10 to 100 µl of a 1 mg/ml solution) is incubated at 37°C with 400 µl of human fixed thrombin activated platelets for 2 minutes. 12.5 µl of human fibrinogen solution is added and aggregation is monitored using a platelet aggregation profiler (Model PAP-4). Controls consist of fibrinogen added to incubated platelets and the resulting aggregation is considered as 100%. Percent inhibition in the presence of a given concentration of test compound versus concentration of the compound is plotted and the concentration required to give 50% inhibition (IC50) is determined.
structure (smiles),measurement,setting,value
"Cc1cc(O)c(Cc2cc(O)c(Cc3cc(O)c(Cc4cc(O)c(Cc5cc(O)c(Cc6cc(O)c(Cc7cc(O)c(Cc8cc(O)ccc8CCC(=O)O)cc7CCC(=O)O)cc6CCC(=O)O)cc5CCC(=O)O)cc4CCC(=O)O)cc3CCC(=O)O)cc2CCC(=O)O)cc1CCC(=O)O [Ex 4, 5-[4-[4-[4-[4-[4-[4-[[2-(2-carboxyethyl)-5-hydroxy]benzyl]-[2-(2-carboxyethyl)-5-hydroxy]benzyl]-[2-(2-carboxyethyl)-5-hydroxy]benzyl]-[2-(2-carboxyethyl)-5-hydroxy]benzyl]-[2-(2-carboxyethyl)-5-hydroxy]benzyl]-[2-(2-carboxyethyl)-5-hydroxy]benzyl]-[2-(2-carboxyethyl)-5-hydroxy]benzyl]-4-hydroxy-2-methylhydrocinnamic acid]",APTT ICDCT,[1],430 µg/mL
same,% Inhibition of Heparanase Activity (5µg/ml),[2],2%
same,Platelet Aggregation IC50,[3],>1000 mg/L
